Measured values from PubChem BioAssay (NCI).
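Exposure lasted 48 hours, with cells grown in 96-well plates and compounds tested at five concentrations. Abbreviation: GI50, concentration required for 50% inhibition of growth. Definition used: TGI = concentration required for complete inhibition of growth.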

Legend:
Test in all cases: NCI-60 cell line screen, 48 h
SF-295 CNS = tested on: SF-295 CNS
M14 melanoma = tested on: M14 melanoma
OVCAR-8 ovarian = tested on: OVCAR-8 ovarian
NCI-H460 lung = tested on: NCI-H460 lung
K-562 leukemia = tested on: K-562 leukemia
HT29 colon = tested on: HT29 colon
HS 578T breast = tested on: HS 578T breast
MCF7 breast = tested on: MCF7 breast
T-47D breast = tested on: T-47D breast
PC-3 prostate = tested on: PC-3 prostate

Q: Which results are given for `Cc1nc2ccccc2nc1CC(=O)C(=O)Nc1ccc(Cl)cc1Cl`?
A: TGI (SF-295 CNS): > 100 µM; TGI (M14 melanoma): > 100 µM; TGI (OVCAR-8 ovarian): > 100 µM; TGI (NCI-H460 lung): > 100 µM; TGI (K-562 leukemia): > 100 µM

Q: How did the TGI (SF-295 CNS) turn out when `Cc1nc(N)nc(CCC(=O)Nc2cccc(C(F)(F)F)c2)c1-c1ccc(Cl)cc1` was run?
A: The TGI was over 100 µM.

Q: And the TGI (HT29 colon)?
A: The TGI was over 100 µM.

Q: And the TGI (M14 melanoma)?
A: The TGI was over 100 µM.

Q: And the TGI (OVCAR-8 ovarian)?
A: The TGI was over 100 µM.

Q: And the TGI (NCI-H460 lung)?
A: Its TGI is over 100 µM.

Q: And the TGI (K-562 leukemia)?
A: The TGI was over 100 µM.

Q: `COc1cc(C)c(CC/C(C)=C/Cc2cc(O)ccc2O)c(C)c1C` was tested. Which TGI (SF-295 CNS) did it give?
A: Its TGI is over 25 µM.

Q: And the TGI (HT29 colon)?
A: Its TGI is over 25 µM.

Q: And the TGI (M14 melanoma)?
A: The TGI was over 25 µM.

Q: What about the TGI (OVCAR-8 ovarian) of the same compound?
A: Its TGI is over 25 µM.

Q: What about the TGI (NCI-H460 lung) of the same compound?
A: Its TGI is over 25 µM.

Q: And the TGI (K-562 leukemia)?
A: The TGI was over 25 µM.

Q: How did the TGI (SF-295 CNS) turn out when `CCOC(=O)c1nc(C)oc1C(F)(F)F` was run?
A: The TGI was over 100 µM.

Q: And the TGI (HT29 colon)?
A: The TGI was over 100 µM.

Q: What about the TGI (M14 melanoma) of the same compound?
A: The TGI was over 100 µM.

Q: And the TGI (OVCAR-8 ovarian)?
A: The TGI was over 100 µM.

Q: And the TGI (NCI-H460 lung)?
A: The TGI was over 100 µM.

Q: What about the TGI (K-562 leukemia) of the same compound?
A: The TGI was over 100 µM.

Q: For `O=C1[C@@H]2C(c3c(Cl)cccc3Cl)=NO[C@@H]2C(=O)N1c1ccc(Cc2ccc(N3C(=O)[C@H]4C(c5c(Cl)cccc5Cl)=NO[C@H]4C3=O)cc2)cc1`, which TGI (SF-295 CNS) is on record?
A: Its TGI is over 100 µM.

Q: And the TGI (HT29 colon)?
A: Its TGI is over 100 µM.

Q: What about the TGI (M14 melanoma) of the same compound?
A: Its TGI is over 100 µM.

Q: What about the TGI (OVCAR-8 ovarian) of the same compound?
A: The TGI was over 100 µM.

Q: And the TGI (NCI-H460 lung)?
A: The TGI was over 100 µM.

Q: And the TGI (K-562 leukemia)?
A: The TGI was over 100 µM.

Q: For `COc1ccc(CNc2cnc3ccc(N)cc3n2)cc1`, which TGI (SF-295 CNS) is on record?
A: The TGI was over 100 µM.

Q: And the TGI (HT29 colon)?
A: Its TGI is over 100 µM.

Q: And the TGI (M14 melanoma)?
A: The TGI was over 100 µM.

Q: What about the TGI (OVCAR-8 ovarian) of the same compound?
A: Its TGI is over 100 µM.

Q: What about the TGI (NCI-H460 lung) of the same compound?
A: The TGI was over 100 µM.

Q: And the TGI (K-562 leukemia)?
A: The TGI was over 100 µM.

Q: Which TGI (HS 578T breast) does the source give for `CC(=O)O[C@H]1C(=O)[C@@]2(C)C([C@H](OC(=O)c3ccccc3)[C@]3(O)C[C@H](OC(=O)[C@H](O)[C@@H](NC(=O)c4ccccc4)c4ccccc4)C(C)=C1C3(C)C)[C@]1(OC(C)=O)CO[C@@H]1C[C@@H]2O` (some centres undefined) here?
A: The TGI was over 50 µM.

Q: And the GI50 (SF-295 CNS)?
A: The GI50 was 0.0173 µM.

Q: What about the TGI (SF-295 CNS) of the same compound?
A: Its TGI is over 50 µM.

Q: What about the GI50 (HT29 colon) of the same compound?
A: The GI50 was under 0.005 µM.

Q: And the GI50 (MCF7 breast)?
A: Its GI50 is under 0.005 µM.

Q: What about the TGI (MCF7 breast) of the same compound?
A: Its TGI is over 50 µM.

Q: What about the GI50 (OVCAR-8 ovarian) of the same compound?
A: Its GI50 is 0.00804 µM.

Q: What about the TGI (OVCAR-8 ovarian) of the same compound?
A: Its TGI is over 50 µM.

Q: And the GI50 (NCI-H460 lung)?
A: The GI50 was under 0.005 µM.

Q: And the TGI (NCI-H460 lung)?
A: The TGI was over 50 µM.

Q: What about the GI50 (T-47D breast) of the same compound?
A: The GI50 was 0.00973 µM.

Q: And the TGI (T-47D breast)?
A: The TGI was over 50 µM.

Q: And the GI50 (K-562 leukemia)?
A: The GI50 was 0.00596 µM.

Q: And the TGI (K-562 leukemia)?
A: Its TGI is over 50 µM.

Q: What about the GI50 (PC-3 prostate) of the same compound?
A: The GI50 was 0.0129 µM.

Q: What about the TGI (PC-3 prostate) of the same compound?
A: Its TGI is over 50 µM.

Q: How did the TGI (SF-295 CNS) turn out when `CCc1cccc(C)c1NC(=O)CCc1nc(=S)[nH][nH]1` was run?
A: Its TGI is over 100 µM.

Q: What about the TGI (HT29 colon) of the same compound?
A: Its TGI is over 100 µM.

Q: What about the TGI (M14 melanoma) of the same compound?
A: Its TGI is over 100 µM.

Q: And the TGI (OVCAR-8 ovarian)?
A: The TGI was over 100 µM.

Q: And the TGI (NCI-H460 lung)?
A: Its TGI is over 100 µM.

Q: And the TGI (K-562 leukemia)?
A: Its TGI is over 100 µM.

Q: Which results are given for `COc1cc([C@@H]2c3cc4c(cc3[C@@H](NC(=O)c3ccc(C#N)cc3)C3COC(=O)[C@@H]32)OCO4)cc(OC)c1O` (some centres undefined)?
A: TGI (SF-295 CNS): 11.8 µM; TGI (HT29 colon): 4.23 µM; TGI (M14 melanoma): 12.4 µM; TGI (OVCAR-8 ovarian): 6.38 µM; TGI (NCI-H460 lung): 1.43 µM; TGI (K-562 leukemia): > 100 µM

Q: `CCCCCOc1ccc(/C=N/Nc2cc(C)nc3ccc(Cl)cc23)cc1` was tested. Which GI50 (SF-295 CNS) did it give?
A: The GI50 was 1.77 µM.

Q: What about the TGI (SF-295 CNS) of the same compound?
A: The TGI was 3.34 µM.

Q: What about the GI50 (HT29 colon) of the same compound?
A: The GI50 was 1.44 µM.

Q: And the TGI (HT29 colon)?
A: The TGI was 2.81 µM.

Q: And the GI50 (M14 melanoma)?
A: The GI50 was 1.76 µM.

Q: What about the TGI (M14 melanoma) of the same compound?
A: The TGI was 3.23 µM.

Q: What about the GI50 (MCF7 breast) of the same compound?
A: Its GI50 is 1.64 µM.

Q: What about the TGI (MCF7 breast) of the same compound?
A: Its TGI is 3.4 µM.

Q: What about the GI50 (OVCAR-8 ovarian) of the same compound?
A: Its GI50 is 1.98 µM.

Q: And the TGI (OVCAR-8 ovarian)?
A: Its TGI is 4.23 µM.

Q: And the GI50 (NCI-H460 lung)?
A: The GI50 was 1.95 µM.

Q: And the TGI (NCI-H460 lung)?
A: The TGI was 3.96 µM.

Q: What about the GI50 (T-47D breast) of the same compound?
A: Its GI50 is 1.76 µM.

Q: And the TGI (T-47D breast)?
A: The TGI was 3.71 µM.

Q: And the GI50 (K-562 leukemia)?
A: Its GI50 is 0.691 µM.

Q: What about the TGI (K-562 leukemia) of the same compound?
A: Its TGI is 2.27 µM.

Q: And the GI50 (PC-3 prostate)?
A: The GI50 was 1.61 µM.

Q: What about the TGI (PC-3 prostate) of the same compound?
A: The TGI was 3.1 µM.

Q: Which GI50 (SF-295 CNS) does the source give for `O=C(NCCNCCO)c1ccc2c(c1)oc1cc3ccccc3c(=O)n12` here?
A: Its GI50 is over 50 µM.

Q: What about the TGI (SF-295 CNS) of the same compound?
A: Its TGI is over 50 µM.

Q: And the GI50 (HT29 colon)?
A: The GI50 was 29.4 µM.

Q: What about the TGI (HT29 colon) of the same compound?
A: Its TGI is over 50 µM.

Q: And the GI50 (M14 melanoma)?
A: Its GI50 is over 50 µM.

Q: And the TGI (M14 melanoma)?
A: Its TGI is over 50 µM.

Q: And the GI50 (MCF7 breast)?
A: Its GI50 is 31.1 µM.

Q: What about the TGI (MCF7 breast) of the same compound?
A: The TGI was over 50 µM.

Q: What about the GI50 (OVCAR-8 ovarian) of the same compound?
A: Its GI50 is 15.7 µM.

Q: What about the TGI (OVCAR-8 ovarian) of the same compound?
A: The TGI was over 50 µM.

Q: What about the GI50 (NCI-H460 lung) of the same compound?
A: Its GI50 is 25.4 µM.

Q: And the TGI (NCI-H460 lung)?
A: The TGI was over 50 µM.

Q: And the GI50 (T-47D breast)?
A: The GI50 was 24.7 µM.

Q: And the TGI (T-47D breast)?
A: Its TGI is over 50 µM.

Q: What about the GI50 (K-562 leukemia) of the same compound?
A: Its GI50 is 46.7 µM.

Q: And the TGI (K-562 leukemia)?
A: The TGI was over 50 µM.

Q: And the GI50 (PC-3 prostate)?
A: Its GI50 is 35.5 µM.

Q: And the TGI (PC-3 prostate)?
A: Its TGI is over 50 µM.
